Test system: GST-tagged Cn
Test: PEPperPRINT peptide microarray binding assay with GST-tagged Cn
Summary of the method: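 Qualitative binding: peptides printed on a PEPperPRINT microarray were incubated overnight at 4 °C with 1 mg/ml GST-tagged Cn, then detected with Alexa-Fluor 647 anti-GST antibody. Log fluorescence was baseline-corrected, averaged over duplicate spots, Z-normalized and averaged across five repeats.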

[1] = max over the spots listed under Location on chip
[2] = mean over the spots listed under Location on chip
[3] = GST-tagged Cn, max over the chip spots listed under Location on chip
[4] = GST-tagged Cn, mean over the chip spots listed under Location on chip
[5] = GST-tagged Cn, max over the chip locations
[6] = GST-tagged Cn, mean over the chip locations
[7] = GST-tagged Cn, max over the spots on the chip (two locations)
[8] = GST-tagged Cn, mean over the spots on the chip (two locations)
[9] = GST-tagged Cn, max over the spots named in Location on chip
[10] = GST-tagged Cn, mean over the spots named in Location on chip
[11] = max over the chip locations listed for the peptide (two spots)
[12] = mean over the chip locations listed for the peptide (two spots)

Sequence: GSETQPGIVVHVCEDD [SeqRBMlowT_1216]
- Chip Fluorescence (max) [1]: 2.678
- Chip Fluorescence (mean) [2]: 0.9155

Sequence: LNRIEIFVTFNFTRNS [Seqshuffled_5110]
- Chip Fluorescence (max) [1]: 3.363
- Chip Fluorescence (mean) [2]: 0.477

Sequence: LKDEVPEVRLNIISNL [SeqRCN1_Ramazzottius_varieornatus]
- Chip Fluorescence (max) [3]: 0.4089
- Chip Fluorescence (mean) [4]: -0.7319

Sequence: ATSGTFPQTDGSHKKQ [SeqRBMlowT_7701]
- Chip Fluorescence (max) [5]: -0.3986
- Chip Fluorescence (mean) [6]: -1.022

Sequence: GSSSSPPVDLKIPQVR [SeqRBMlowT_8820]
- Chip Fluorescence (max) [7]: 1.178
- Chip Fluorescence (mean) [8]: 0.2864

Sequence: TFWTNPQYRITLEDVD [SeqRBMlowT_4237]
- Chip Fluorescence (max) [7]: 1.081
- Chip Fluorescence (mean) [8]: 0.5254

Sequence: RSYINPFVTFLDHGHR [SeqSFB3_Blumeria_graminis]
- Chip Fluorescence (max) [3]: 0.7568
- Chip Fluorescence (mean) [4]: -0.5098

Sequence: TPVSDHNFALDVSGKP [Seqshuffled_9616]
- Chip Fluorescence (max) [9]: 1.846
- Chip Fluorescence (mean) [10]: 0.06645

Sequence: KSSSSPSASINVPQSN [SeqRBM_1871]
- Chip Fluorescence (max) [11]: 3.993
- Chip Fluorescence (mean) [12]: 1.569

Sequence: LLLKIPSLNINDVEAS [SeqRBM_1919]
- Chip Fluorescence (max) [5]: -0.781
- Chip Fluorescence (mean) [6]: -1.379

Sequence: TFWTNPQYRLKIPQVD [SeqRBMlowT_9671]
- Chip Fluorescence (max) [3]: 0.5794
- Chip Fluorescence (mean) [4]: -0.5687

Sequence: STSSLPTFSFSSPVPS [SeqRBMlowT_2358]
- Chip Fluorescence (max) [5]: -0.2537
- Chip Fluorescence (mean) [6]: -3.06

Sequence: GAPITPHKQGNEKAVS [SeqRBM_6919]
- Chip Fluorescence (max) [3]: 0.7143
- Chip Fluorescence (mean) [4]: -1.223

Sequence: TFWTNPQFRVKLEEPD [SeqRBMlowT_201]
- Chip Fluorescence (max) [3]: 0.5145
- Chip Fluorescence (mean) [4]: -0.7212

Sequence: HSKLIPKLSISSPVHH [SeqRBMlowT_1731]
- Chip Fluorescence (max) [3]: 0.5936
- Chip Fluorescence (mean) [4]: -1.087

Sequence: SSSSLPTFQFSTPATL [SeqRBM_7341]
- Chip Fluorescence (max) [7]: 1.265
- Chip Fluorescence (mean) [8]: -1.213

Sequence: NNSESPKIAITTTLGN [SeqRBM_1677]
- Chip Fluorescence (max) [9]: 1.504
- Chip Fluorescence (mean) [10]: -0.4285

Sequence: SLKLWMLLGIEAFTLS [SeqRBM_4562]
- Chip Fluorescence (max) [7]: 1.02
- Chip Fluorescence (mean) [8]: 0.3817

Sequence: TFWTNPQYKITLEEDD [SeqRBMlowT_9018]
- Chip Fluorescence (max) [1]: 2.666
- Chip Fluorescence (mean) [2]: -0.09775

Sequence: TFWTNPQFRLKVVDPD [SeqRBMlowT_7375]
- Chip Fluorescence (max) [9]: 1.609
- Chip Fluorescence (mean) [10]: 0.5158

Sequence: ATDTTPSVVVHVCESD [SeqRCN1_Macaca_mulatta]
- Chip Fluorescence (max) [7]: 1.045
- Chip Fluorescence (mean) [8]: 0.2093

Sequence: TFWTNPQFRIHLEEED [SeqRBMlowT_251]
- Chip Fluorescence (max) [1]: 2.844
- Chip Fluorescence (mean) [2]: 1.205

Sequence: NIEKMPELQACGHTSF [SeqRBM_2022]
- Chip Fluorescence (max) [11]: 4.705
- Chip Fluorescence (mean) [12]: 1.485

Sequence: RAYINPFMQFNDGGSR [SeqRBM_9542]
- Chip Fluorescence (max) [7]: 1.138
- Chip Fluorescence (mean) [8]: 0.2992

Sequence: RAMRILKCCPHPAAWN [Seqrandom_9981]
- Chip Fluorescence (max) [7]: 1.034
- Chip Fluorescence (mean) [8]: 0.3693

Sequence: QLLAVPALSVDRKGPK [SeqCACUL1_Dipodomys_ordii]
- Chip Fluorescence (max) [7]: 1.085
- Chip Fluorescence (mean) [8]: -0.04024

Sequence: NICTSLTLVETDPTVY [Seqshuffled_9501]
- Chip Fluorescence (max) [1]: 2.929
- Chip Fluorescence (mean) [2]: 1.69

Sequence: TFWANPQFKIRLEEPD [SeqRBMlowT_2213]
- Chip Fluorescence (max) [7]: 1.142
- Chip Fluorescence (mean) [8]: -0.04147

Sequence: THVEKVRFLIQPAGHP [Seqshuffled_9690]
- Chip Fluorescence (max) [3]: 0.887
- Chip Fluorescence (mean) [4]: -0.1564

Sequence: FSFMCPDSNTNHDQVS [SeqRBM_6801]
- Chip Fluorescence (max) [3]: 0.3774
- Chip Fluorescence (mean) [4]: -0.7887

Sequence: RAYINPFMTFIDGGHR [SeqRBMlowT_1519]
- Chip Fluorescence (max) [11]: 3.708
- Chip Fluorescence (mean) [12]: 0.9074

Sequence: TFWTNPQYRVKLEEPD [SeqRBMlowT_2230]
- Chip Fluorescence (max) [7]: 1.125
- Chip Fluorescence (mean) [8]: -0.4829

Sequence: GGLRSDSVTMIDQGAY [SeqRBM_2699]
- Chip Fluorescence (max) [1]: 2.739
- Chip Fluorescence (mean) [2]: 1.043

Sequence: SSRSSSRPARSPERKP [SeqRGA2_Fusarium_oxysporum]
- Chip Fluorescence (max) [11]: 4.629
- Chip Fluorescence (mean) [12]: 0.8375

Sequence: KAYMCPFMQFQDGGRR [SeqRBMlowT_520]
- Chip Fluorescence (max) [3]: 0.6726
- Chip Fluorescence (mean) [4]: 0.4462

Sequence: KAYIMLFFTFIDGGQK [SeqRBM_3979]
- Chip Fluorescence (max) [3]: 0.8506
- Chip Fluorescence (mean) [4]: -0.3833

Sequence: TFWTNPQYRITLTDVD [SeqRBMlowT_7188]
- Chip Fluorescence (max) [3]: 0.6928
- Chip Fluorescence (mean) [4]: -1.3023

Sequence: KAYMSPFMQFVDAGRR [SeqSFB3_Nasonia_vitripennis]
- Chip Fluorescence (max) [9]: 1.597
- Chip Fluorescence (mean) [10]: -0.04342

Sequence: TFWTNPQFVVSLEEPD [SeqRBMlowT_8096]
- Chip Fluorescence (max) [7]: 1.137
- Chip Fluorescence (mean) [8]: -0.6823

Sequence: TTWLVVFMIPELMKLS [Seqshuffled_9855]
- Chip Fluorescence (max) [7]: 1.271
- Chip Fluorescence (mean) [8]: 0.8684

Sequence: VSLYEDALGLGQFSLS [SeqRBM_4294]
- Chip Fluorescence (max) [1]: 2.638
- Chip Fluorescence (mean) [2]: 0.5735

Sequence: ADEAIPEIVISPPELP [SeqRBMlowT_1959]
- Chip Fluorescence (max) [1]: 3.309
- Chip Fluorescence (mean) [2]: 0.2863

Sequence: LKDEVPEVRLNIISSL [SeqRBMlowT_4107]
- Chip Fluorescence (max) [3]: 0.9435
- Chip Fluorescence (mean) [4]: -0.1625

Sequence: NMATVPAVTMGEVART [SeqRBM_5293]
- Chip Fluorescence (max) [1]: 2.99
- Chip Fluorescence (mean) [2]: -0.7897

Sequence: RSYDVPVFLFTYLPNP [SeqRBM_7048]
- Chip Fluorescence (max) [11]: 4.515
- Chip Fluorescence (mean) [12]: 0.06008

Sequence: VETIRPGVVTEPMEAG [SeqRBM_4600]
- Chip Fluorescence (max) [1]: 3.238
- Chip Fluorescence (mean) [2]: 1.278

Sequence: KKMAPPCINIDFAPTN [SeqRBMlowT_322]
- Chip Fluorescence (max) [5]: -0.3563
- Chip Fluorescence (mean) [6]: -3.542

Sequence: SHKASPPTLNESPVTH [SeqRBM_2083]
- Chip Fluorescence (max) [5]: -0.06558
- Chip Fluorescence (mean) [6]: -1.173

Sequence: TFWTNPQYRITLEEPD [SeqRBMlowT_212]
- Chip Fluorescence (max) [7]: 1.104
- Chip Fluorescence (mean) [8]: 0.3317

Sequence: TFHTNPQYRVNIEDQD [SeqRBM_8967]
- Chip Fluorescence (max) [9]: 1.436
- Chip Fluorescence (mean) [10]: 0.08694

Sequence: SSKSLPTFSFSSPVSH [SeqRBMlowT_6060]
- Chip Fluorescence (max) [9]: 1.331
- Chip Fluorescence (mean) [10]: 0.1061

Sequence: WAGCDTWVFSIWRWIA [Seqrandom_10000]
- Chip Fluorescence (max) [11]: 3.486
- Chip Fluorescence (mean) [12]: 0.3128

Sequence: RVLECPSIRITSISPT [SeqNFATC4_Homo_sapiens]
- Chip Fluorescence (max) [5]: 0.1768
- Chip Fluorescence (mean) [6]: -0.8782

Sequence: RLFSVCEQEEEIERAP [Seqshuffled_9643]
- Chip Fluorescence (max) [11]: 4.044
- Chip Fluorescence (mean) [12]: 1.1677

Sequence: DRMAQDSMGWCRECLM [Seqrandom_9951]
- Chip Fluorescence (max) [11]: 3.639
- Chip Fluorescence (mean) [12]: 1.593

Sequence: FETSHPTVQLKIPQLR [SeqLCORL_Pteropus_alecto]
- Chip Fluorescence (max) [1]: 2.606
- Chip Fluorescence (mean) [2]: -0.1576

Sequence: TFWTNPQFRLKLIDPD [SeqRBMlowT_9197]
- Chip Fluorescence (max) [9]: 1.422
- Chip Fluorescence (mean) [10]: -0.7542

Sequence: TFWTNPQYRITVTDPD [SeqRBMlowT_65]
- Chip Fluorescence (max) [5]: 0.2441
- Chip Fluorescence (mean) [6]: -1.026

Sequence: PSPDQPGIVVHTCEDD [SeqRBMlowT_9795]
- Chip Fluorescence (max) [3]: 0.973
- Chip Fluorescence (mean) [4]: 0.3644

Sequence: VFAQEDYFLFPVILKE [Seqrandom_9943]
- Chip Fluorescence (max) [1]: 3.279
- Chip Fluorescence (mean) [2]: -0.004599

Sequence: DSLYQEVLGIGSFSLA [SeqCRZ1_Hypocrea_virens]
- Chip Fluorescence (max) [1]: 2.584
- Chip Fluorescence (mean) [2]: -0.1117

Sequence: QTSCLPFPVVNSQEGQ [SeqRBM_2540]
- Chip Fluorescence (max) [7]: 1.036
- Chip Fluorescence (mean) [8]: -0.9088

Sequence: QKRYGETFPPVKTGSD [Seqshuffled_1489]
- Chip Fluorescence (max) [7]: 1.242
- Chip Fluorescence (mean) [8]: -0.2303

Reference: publication PMC9928118, “Funneling modulatory peptide design with generative models: Discovery and characterization of disruptors of calcineurin protein-protein interactions” (PLOS Computational Biology, 2023)
